Test results reported in patent US8147852B2, “Modified azole compounds as antifungal and antibacterial agents” (Barrier Therapeutics, Inc., priority 2006, dated 2012).
Values after ≈ are worked out from the molar mass of the structure shown.

Legend:
Format in all cases: cell-based
C. albicans = test: MIC100 against C. albicans strains; details: Candida albicans, 48 h
C. glabrata = test: MIC100 against C. glabrata strains; details: Nakaseomyces glabratus, 48 h
C. tropicalis = test: MIC100 against C. tropicalis; details: Candida tropicalis; C. tropicalis 19596(w.t), wild type; 48 h

SMILES: Clc1ccc(COC(Cn2ccnc2)c2ccc(Cl)cc2Cl)c(Cl)c1 (stereo not shown) [miconazole]
- MIC (C. albicans; C. albicans 19457(w.t), wild type): 4.17 µM (≈ 1.74 µg/mL)
- MIC (C. albicans; C. albicans 19507(r), resistant): 4.17 µM (≈ 1.74 µg/mL)
- MIC (C. albicans; C. albicans 20126(r), resistant): 17 µM (≈ 7.07 µg/mL)
- MIC (C. glabrata; C. glabrata 05/1032(r), resistant): 8.3 µM (≈ 3.45 µg/mL)
- MIC (C. glabrata; C. glabrata 05/1414(r), resistant): 17 µM (≈ 7.07 µg/mL)
- MIC (C. glabrata; C. glabrata 19371(w.t.), wild type): 4.17 µM (≈ 1.74 µg/mL)
- MIC (C. tropicalis): 8.3 µM (≈ 3.45 µg/mL)
